These results are taken from patent US10654824B2, “2-azabicyclo[3.1.0]hexan-3-one derivatives and methods of use” (Genentech, Inc., priority 2016, dated 2020).

SMILES strings stand for the structures. Entries after “also recorded” stand apart in the source; their conditions may differ.

One data set deals with T1, NIK (Homo sapiens, UniProt Q99558).
T1 construct: made in house; host or cells: baculovirus-infected insect cells
Kind of data set: NIK enzyme inhibition assay (Transcreener ADP, fluorescence polarization). Conditions: for NIK enzyme inhibition, rank among the 4 stereoisomers: in words, four separated stereoisomers of Example 1. The format is biochemical. On the procedure: The ability of the nuclear factor-kappa B (NF-kB)-inducing kinase (NIK) to catalyze the hydrolysis of adenosine-5′-triphosphate (ATP) was monitored using the Transcreener ADP (adenosine-5′-diphosphate) assay (BellBrook Labs). Purified NIK (0.5 nM) derived from a baculovirus-infected insect cell expression system was incubated with test compounds for 1-3.5 hours in 50 mM 2-[4-(2-hydroxyethyDpiperazin-1-yl]ethanesulfonic acid buffer (pH 7.2) containing 10 mM MgCl2, 2 mM dithiothreitol, 10 μM ATP, 0.01% Triton X-100, 0.1% gamma-globulins from bovine blood, 1% dimethylsulfoxide (DMSO), 7 μg/mL ADP antibody and 5 nM ADP-MR121 633 tracer. Reactions were quenched by the addition of 20 mM 2,2′,2″, 2″′-(ethane-1,2-diyldinitrilo)tetraacetic acid and 0.01% Brij 35. The tracer bound to the antibody was displaced by the ADP generated during the NIK reaction, which causes a decrease in fluorescence polarization that was measured by laser excitation at 633 nm with a Fluorescence Correlation Spectroscopy Plus reader (Evotec AG). Equilibrium dissociation constant (Ki) values for NIK inhibitors are calculated from plots of activity vs. inhibitor concentration using Morrison's quadratic equation that accounts for the potential of tight binding, and by also applying the conversion factor that accounted for competitive inhibition and the concentration of substrate used in the assay relative to its Michaelis constant (Km).
For orientation: Fluorescence polarisation rises when a labelled molecule tumbles more slowly, as on binding a larger partner.

Data set [1] has as its system REL-A (p65) nuclear translocation, classical NF-kB signaling, HUVEC. Briefly: REL-A HUVEC nuclear translocation assay. The format is cell-based. The note with it: Homo sapiens, TNF-α 2 ng/mL stimulation. On the procedure:
(§1) (2) A second set of cell assays used primary human umbilical vein cells (HUVEC) sourced from Lonza to define the selectivity of NIK inhibitors toward inhibition of classical vs. non-classical NF-kB signaling using high content cellular imaging. For the p52 (non-classical NF-kB signaling) nuclear translocation assay, HUVEC were treated with different concentrations of compounds (0.2% DMSO final) in EBM-2 medium (LONZA) containing 2% fetal bovine serum and then stimulated with 300 ng/mL of an anti-lymphotoxin beta receptor antibody (R&D Systems) for 4.5 hours. In the REL-A nuclear translocation assay, HUVEC were incubated with compounds (0.2% DMSO final) for 4 hours 50 minutes in EBM-2 medium containing 2% fetal bovine serum before stimulating them with 2 ng/mL tumor necrosis factor (TNF)-α (R&D Systems) for 10 minutes. Cells were fixed with 4% paraformaldehyde, permeabilized by adding 0.1% Triton X-100 in phosphate buffered saline, and then were incubated with either 2 μg/mL anti-p52 antibody (Millipore) or 400 ng/mL anti-REL-A (p65) antibody (Santa Cruz Biotechnology). […] Imaging was carried out using an Opera reader (Perkin Elmer) and data were analyzed with the aid of Acapella software (Perkin Elmer). The p52 or REL-A translocation into the nucleus was quantified by the ratio of the nuclear to cytoplasmic signal intensity.

The test system of data set [2] is p52 nuclear translocation, non-classical NF-kB signaling, HUVEC. Kind of data set: p52 HUVEC nuclear translocation assay. The note with it: Homo sapiens, anti-lymphotoxin beta receptor antibody 300 ng/mL. It counts as cell-based. Here is the method:
as §1

A short description of data set [3]: Liver microsome stability. It counts as in vitro ADME, human. On the procedure: General. Metabolic stability assays in liver microsomes are conducted with pooled female CD-1 mouse, male Sprague-Dawley rat, male beagle dog, male cynomolgus monkey, and mixed male and female human liver microsomal incubations. The general assay conditions are as follows. Incubation mixtures consisted of liver microsomes (0.5 mg of microsomal protein/ml) and the test compound (1.0 μM) with or without NADPH (1.0 mM) in the potassium phosphate buffer (100 mM; pH 7.4) with a final incubation volume of 0.25 ml. Reactions are initiated by the addition of NADPH or buffer and shaken in a water bath open to the air at 37° C. At times 0, 20, 40, and 60 min, aliquots (50 μl) are removed and added to termination mixtures (100 μl) containing acetonitrile and an internal standard. The samples are then centrifuged for 10 min at 2000 g. The supernatant (90 μl) is removed, combined with 180 μl of water, and analyzed by LC-MS/MS.
Metabolic stability of the test compounds were evaluated in human liver microsomes following known protocols described in Halladay, et al. Drug Metabol. Lett. 2007, 1:67-72.

Another data set can be described thus: Hepatocyte stability. It counts as in vitro ADME, human. On the procedure: General. Metabolic stability assays in hepatocytes are conducted using cryopreserved pooled female CD-1 mouse, male Sprague-Dawley rat, male beagle dog, male cynomolgus monkey, and mixed male and female human hepatocytes (CellzDirect). Vials of hepatocytes are thawed rapidly in a water bath set at 37° C. and then are diluted with Dulbecco's modified Eagle's medium (DMEM), pH 7.4. Cells are isolated by centrifugation, pooled, and resuspended in DMEM at 1.0 million viable cells/ml. Membrane integrity of the cells is assessed by trypan blue exclusion. The test compound is dissolved in dimethyl sulfoxide at a final concentration of […]. This test compound stock is diluted further to 2 μM in DMEM (125 μl) before the addition of an equal volume of the 10^6 cells/ml cell suspension. The test compound (final incubation concentration of 1.0 μM with 0.1% dimethyl sulfoxide) and cells (final concentration of 0.5×10^6 cells/ml) are incubated at 37° C. in a 95% air/5% CO2 atmosphere for 3 h. Aliquots (50 μl) are removed at 0, 1, 2, and 3 hours and added to termination mixtures (100 μl) containing acetonitrile and an internal standard. […] The supernatant (90 μl) is removed, combined with 180 μof water, and analyzed by LC-MS/MS.
Metabolic stability of the test compounds were evaluated also in human hepatocytes, following protocols described in Hallifax, et al. Drug Metabol. […]

T1 sequence (Q99558 whole entry): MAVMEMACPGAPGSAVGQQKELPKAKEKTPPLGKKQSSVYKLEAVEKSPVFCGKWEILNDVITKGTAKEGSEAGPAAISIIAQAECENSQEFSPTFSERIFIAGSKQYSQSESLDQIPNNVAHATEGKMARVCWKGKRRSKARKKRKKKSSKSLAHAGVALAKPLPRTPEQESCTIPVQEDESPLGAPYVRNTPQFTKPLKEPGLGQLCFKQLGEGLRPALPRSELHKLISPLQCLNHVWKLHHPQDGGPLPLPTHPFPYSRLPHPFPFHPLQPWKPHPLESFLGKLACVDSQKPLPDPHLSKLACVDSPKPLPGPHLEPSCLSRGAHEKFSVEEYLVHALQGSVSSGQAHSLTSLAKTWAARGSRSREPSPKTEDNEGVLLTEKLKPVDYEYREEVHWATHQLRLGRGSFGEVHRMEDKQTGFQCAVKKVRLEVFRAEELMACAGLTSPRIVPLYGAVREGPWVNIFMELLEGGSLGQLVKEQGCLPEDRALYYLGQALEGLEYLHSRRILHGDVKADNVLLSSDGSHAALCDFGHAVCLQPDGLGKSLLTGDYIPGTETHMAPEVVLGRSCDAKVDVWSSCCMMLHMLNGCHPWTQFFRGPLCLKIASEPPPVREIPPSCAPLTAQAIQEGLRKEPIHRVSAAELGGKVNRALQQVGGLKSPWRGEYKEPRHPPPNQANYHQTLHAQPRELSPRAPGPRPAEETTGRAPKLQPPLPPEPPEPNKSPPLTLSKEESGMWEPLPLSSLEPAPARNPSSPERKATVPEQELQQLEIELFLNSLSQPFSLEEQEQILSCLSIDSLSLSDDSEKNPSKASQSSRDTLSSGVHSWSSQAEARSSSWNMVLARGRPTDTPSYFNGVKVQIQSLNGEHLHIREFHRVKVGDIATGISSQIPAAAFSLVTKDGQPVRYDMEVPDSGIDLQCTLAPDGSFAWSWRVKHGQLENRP

Consider `CN1C(=O)[C@@](O)(C#Cc2cccc(-c3cccc(C(N)=O)n3)c2)[C@H]2C[C@H]21` (single isomer, unassigned), for which the “NIK enzyme inhibition, rank among the 4 stereoisomers” value (from here on “NIK enzyme inhibition”) on NIK was “third most potent NIK enzyme inhibitor among the 4 stereoisomers”.
Still for that read-out and setting: under `CN1C(=O)[C@](O)(C#Cc2cccc(-c3cccc(C(N)=O)n3)c2)[C@@H]2C[C@@H]21` (single isomer, unassigned) stands “second most potent NIK enzyme inhibitor among the 4 stereoisomers”.
With `CN1C(=O)[C@@](O)(C#Cc2cccc(-c3cccc(C(N)=O)n3)c2)[C@@H]2C[C@@H]21` (single isomer, unassigned), the “NIK enzyme inhibition” value at NIK is given as “no measurable inhibition”.
Usually Ki stands for a dissociation constant, usually derived from enzyme kinetics or from competition with a known ligand. For orientation: IC50 means the point on the concentration scale where inhibition reaches its midpoint. Low readings indicate higher potency, high ones lower potency. Turning to `CN1C(=O)[C@](O)(C#Cc2cccc(-c3cccc(C(N)=O)n3)c2)[C@H]2C[C@H]21` (single isomer, unassigned) [Compound 1], on NIK, the “NIK enzyme inhibition” value was “most potent NIK enzyme inhibitor among the 4 stereoisomers”. In addition, the Ki at NIK (purified NIK 0.5 nM, 10 μM ATP, read-out: NIK ADP-FP Ki) turned out to be 0.4 nM. Besides, the IC50 is over 5000 nM in data set [1] and 93 nM in data set [2]. In addition, the “HLM CL (human liver microsome clearance)” value in data set [3] (human liver microsomes) amounted to 1.2 mL/min/kg. For the same molecule, the “stability in human liver microsomes compared with the respective pyrrolidinone comparator compound” value in data set [3] (in words, versus comparators C-1, C-3, C-4, C-5, C-6) was “lower clearance; also recorded: better stability”. Further, the “Hep CL (human hepatocyte clearance)” value in “Hepatocyte stability” (human hepatocytes) was determined as 4.1 mL/min/kg. In addition, the “stability in the human hepatocyte assay compared with the corresponding comparator compound” value in the data set “Hepatocyte stability” (in words, versus comparators C-1, C-3, C-5) is on record as “better stability”.
